# Patent US20250129028A1, “COMPOUNDS AND METHODS FOR YAP/TEAD MODULATION AND INDICATIONS THEREFOR” (Opna Bio SA, priority 2022, published 2025)
# Test system: TEAD-dependent transcription
# Test: TEAD-dependent transcription cell-based reporter assay (MSTO-211H+12XGTIIC luciferase)
# Parameters: species or system human
# Conditions: Homo sapiens; MSTO-211H+12XGTIIC cell line, luciferase signal normalized to cell viability, 24 hours compound incubation; read-out: MSTO-211H GMean IC50 (uM) Cell Assay Reporter Cell Variant: TEAD
# Procedure, shortened: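 MSTO-211H mesothelioma cells stably carrying a 12xGTIIC TEAD-response-element luciferase reporter, treated with serial compound dilutions for 24 h at 37 °C. Luminescence normalized to CellTiter-Fluor viability signal; % inhibition versus DMSO and 20 μM K-975 controls, IC50 by nonlinear regression.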
row,Compound,IC50 [µM]
1,"C=CC(=O)Nc1nc(CC(=O)N2CCc3ccc(Oc4ccc(C(F)(F)F)c(F)c4)cc3C2)cs1 [P-0154, N-(4-(2-(7-(3-fluoro-4-(trifluoromethyl)phen-oxy)-3,4-dihydroisoquin-olin-2(1H)-yl)-2-oxoeth-yl)thiazol-2-yl)acrylamide]",0.001 to 10
2,"Nc1nc(CC(=O)N2CCc3ccc(Oc4ccc(C(F)(F)F)c(F)c4)cc3C2)cs1 [P-0155, 2-(2-aminothiazol-4-yl)-1-(7-(3-fluoro-4-(trifluoromethyl)phen-oxy)-3,4-dihydroisoquin-olin-2(1H)-yl)ethan-1-one]",0.001 to 10
3,"CN(C)C(N1CCc2ccc(Oc3ccc(C(F)(F)F)cc3)cc2C1)=[N+](C)C [P-0156, N-((dimethylamino)(7-(4-(trifluoromethyl)phen-oxy)-3,4-dihydroisoquin-olin-2(1H)-yl)methylene)-N-methylmethanaminium]",0.001 to 10
4,"C=CS(=O)(=O)N1CC(C(=O)N2CCc3ccc(Oc4ccc(C(F)(F)F)c(F)c4)cc3C2)C1 [P-0157, (7-(3-fluoro-4-(trifluoromethyl)phenoxy)-3,4-dihydroisoquinolin-2(1H)-yl)(1-(vinylsulfonyl)azetidin-3-yl)methanone]",0.001 to 10
5,"C=CS(=O)(=O)N1CCC(C(=O)N2CCc3ccc(Oc4ccc(C(F)(F)F)c(F)c4)cc3C2)C1 (stereo not shown) [P-0158, (7-(3-fluoro-4-(trifluoro-methyl)phenoxy)-3,4-dihydroisoquinolin-2(1H)-yl)(1-(vinylsul-fonyl)pyrrolidin-3-yl)-methanone]",0.001 to 10
6,C=CS(=O)(=O)N1CCC(C(=O)N2CCc3ccc(Oc4ccc(C(F)(F)F)c(F)c4)cc3C2)CC1 [P-0159],0.001 to 10
7,"O=C(Cc1n[nH]c(=O)[nH]1)N1CCc2ccc(Oc3ccc(C(F)(F)F)c(F)c3)cc2C1 [P-0160, 5-(2-(7-(3-fluoro-4-(trifluoromethyl)phen-oxy)-3,4-dihydroisoquin-olin-2(1H)-yl)-2-oxoeth-yl)-2,4-dihydro-3H-1,2,4-triazol-3-one]",0.001 to 10
8,"C=CC(=O)Nc1ncc(CC(=O)N2CCc3ccc(Oc4ccc(C(F)(F)F)c(F)c4)cc3C2)s1 [P-0163, N-(5-(2-(7-(3-fluoro-4-(trifluoromethyl)phen-oxy)-3,4-dihydroisoquin-olin-2(1H)-yl)-2-oxoeth-yl)thiazol-2-yl)acrylamide]",0.001 to 10
9,"O=C(Cc1c[nH]cn1)N1CCc2ccc(Oc3ccc(C(F)(F)F)cc3)cc2C1 [P-0164, 2-(1H-imidazol-4-yl)-1-(7-(4-(trifluoromethyl)-phenoxy)-3,4-dihydroiso-quinolin-2(1H)-yl)ethan-1-one]",0.001 to 10
10,"O=C(Cc1ncc[nH]1)N1CCc2ccc(Oc3ccc(C(F)(F)F)cc3)cc2C1 [P-0165, 2-(1H-imidazol-2-yl)-1-(7-(4-(trifluoromethyl)-phenoxy)-3,4-dihydroiso-quinolin-2(1H)-yl)ethan-1-one]",0.001 to 10
11,"O=C=CCC(=O)N1CCc2ccc(Oc3ccc(C(F)(F)F)cc3)cc2C1 [P-0166, 4-(7-(4-(trifluoromethyl)-phenoxy)-3,4-dihydroiso-quinolin-2(1H)-yl)but-1-ene-1,4-dione]",0.001 to 10
12,"CC(=O)N1CC(CC2c3cc(Oc4ccc(C(F)(F)F)cc4)ccc3CCN2C(=O)CCS(C)(=O)=O)C1 (stereo not shown) [P-0200, 1-(1-((1-acetylazetidin-3-yl)methyl)-7-(4-(trifluoromethyl)phen-oxy)-3,4-dihydroisoquin-olin-2(1H)-yl)-3-(methyl-sulfonyl)propan-1-one]",0.001 to 10
13,"CS(=O)(=O)CCC(=O)N1CCc2ccc(Oc3ccc(C(F)(F)F)cc3)cc2C1CC1CN(c2ccccn2)C1 (stereo not shown) [P-0201, 3-(methylsulfonyl)-1-(1-((1-(pyridin-2-yl)azeti-din-3-yl)methyl)-7-(4-(trifluoromethyl)phen-oxy)-3,4-dihydroisoquin-olin-2(1H)-yl)propan-1-one]",0.001 to 10
